# Measured values: patent publication US20020001582A1, “Methods and compositions for inhibiting microbial growth” (priority 1999, published 2002)
# What was measured:
# [1] = tested on: Phytophthora cinnamomi (IM194); assay: Inhibition of Phytophthora by lysozyme in PD broth, % plate coverage; format: cell-based; conditions: for fungal growth (% plate coverage): 2 weeks after inoculation
# Protocol: (§1) Potato dextrose broth was prepared, poured into glass dilution bottles (100 ml each), autoclaved and allowed to cool. […] A fungal square (plug) of each culture was cut and placed in/near the center of each plate. Fungal growth was quantified by measuring the diameter of growth of each fungus while it was growing on the liquid media in each petri dish using a ruler. Each treatment was done in triplicate.
# The experiment was repeated three times (three batches). The observation period for each batch was 2 weeks.
# The fungal growth was expressed in % coverage of the petri dishes by the fungal patches. The calculation can be presented in the following equation:
# Fungal growth (%)=(area of fungal patch/total plate area)×100
# [2] = tested on: Sclerotinia homoeocarpa; assay: Protective treatment of mature bentgrass (lysozyme 24 hours before inoculation); format: in vivo
# Protocol: One year old bentgrass (Agrotis spp.) cv Pennlink was used as the host in this trial. It was grown in an open field at Select Sand Farm in Fort Langley, B.C. Round pieces of turfgrass, 6 cm diameter, were cut out and placed on 5 cm high pots (made from PVC pipes) containing steam sterilized river washed sand. The potted grass was regularly watered, fertilized and maintained at a cutting height of approximately 2.0 cm above the soil surface.
# The efficacy of egg white lysozyme was tested on Sclerotinia homoeocarpa. Virulent isolates of the test fungi were grown on a rye grain medium for approximately one week. This medium consisted of 50 g of rye grain, 1 g of CaCO3, and 75 ml of water. The medium was prepared in a 250 ml Erlenmeyer flask and autoclaved for 30 minutes. Three to five plugs of the actively growing mycelia from one-week-old culture on potato dextrose agar were transferred into flasks, and incubated in the dark at room temperature.
# Lysozyme was applied with a hand held spray bottle. Treated and untreated bentgrass was then inoculated with the test fungi by placing 3 infected rye kernels in the center of the pot, just above the soil surface. After inoculation, the pots were placed in humidity chambers on a greenhouse bench. […]
# Pots were removed from the humidity chamber and evaluated individually for disease severity. […]
# [3] = tested on: M. nivale; assay: Suppression of fungal disease on young bentgrass, greenhouse trial; format: in vivo, M. nivale on creeping bentgrass (Agrotis spp.) cv. Penncross; conditions: 5,000 and 10,000 ppm
# Protocol: Creeping bentgrass (Agrotis spp.) cv. Penncross was used as the host in the greenhouse trials. This species is widely used in golf greens and is easily managed under greenhouse conditions. Bentgrass was seeded in 6 cm diameter and 5 cm height pots (made from PVC pipes) containing steam sterilized river washed sand. A seeding rate of 0.1 g/pot was used to ensure rapid establishment of a uniform, dense stand. Throughout the experiment, the grass was regularly watered, fertilized and maintained at a cutting height approximately 2.0 cm above the soil surface.
# Virulent isolates of test fungi were grown on a rye grain medium for approximately one week. This medium consisted of 50 g of rye grain, 1 g of CaCO3, and 75 ml of water. It was prepared in a 250 ml Erlenmeyer flask and autoclaved for 30 minutes. Three to five plugs of the actively growing mycelia from week old cultures on potato dextrose agar were transferred into flasks, and incubated in the dark at room temperature.
# Pots of eight-week-old bentgrass were inoculated with the test fungi by placing 2-3 kernels of infected rye in the center of the grass area, just above the soil surface. After inoculation, pots were placed in humidity chambers on a greenhouse bench. Temperature during incubation was maintained at 27-30° C. for disease development and the growth of the test fungi. […]
# [4] = tested on: IM112 Botrytis cinerea(Pers.); assay: Inhibition of Botrytis by lysozyme in PD broth, % plate coverage; format: cell-based
# Protocol: as §1, with “Botrytis was grown in petri dishes on PD agar. Potato” for “Potato”, “triplicate. The experiment was repeated three times (three batches). The observation period for each batch was 2 weeks.” for “triplicate.”
# (§2) The fungal growth was expressed in % coverage of the petri dishes by the fungal patches. The calculation is presented in the following equation:
# (§3) Fungal growth (%)=(area of fungal patch/total plate area )×100
# (§4) The average plate coverage for each treatment was plotted against the time after inoculation (FIGS. 14-19). Statistical analysis was carried out using SigmaStat (Version 2.0, SPSS Science, 1997).
# [5] = tested on: IM082 Botrytis (blueberry, BCMAF F25); assay: as above; format: cell-based; conditions: for coverage of the petri dishes: day 14
# Protocol: as §1, with “Botrytis was grown in petri dishes on PD agar. Potato” for “Potato”, “triplicate. The experiment was repeated three times (three batches). The observation period for each batch was 2 weeks.” for “triplicate.”
# as §2, §3, §4
# [6] = tested on: IM111 Botrytis (blueberry, BCMAF F27); assay: as above; format: cell-based; conditions: for fungal growth (% plate coverage): day 14
# Protocol: as §1, with “Botrytis was grown in petri dishes on PD agar. Potato” for “Potato”, “triplicate. The experiment was repeated three times (three batches). The observation period for each batch was 2 weeks.” for “triplicate.”
# as §2, §3, §4
# [7] = tested on: IM080 Botrytis (pepper, BCMAF F24); assay: as above; format: cell-based; conditions: for average fungal growth (% plate coverage): day 14
# Protocol: as §1, with “Botrytis was grown in petri dishes on PD agar. Potato” for “Potato”, “triplicate. The experiment was repeated three times (three batches). The observation period for each batch was 2 weeks.” for “triplicate.”
# as §2, §3, §4
# [8] = tested on: IM113 Botrytis cinerea(Pers.); assay: as above; format: cell-based; conditions: for fungal growth (% plate coverage): day 14
# Protocol: as §1, with “Botrytis was grown in petri dishes on PD agar. Potato” for “Potato”, “triplicate. The experiment was repeated three times (three batches). The observation period for each batch was 2 weeks.” for “triplicate.”
# as §2, §3, §4
# [9] = tested on: IM188 Botrytis cinerea; assay: as above; format: cell-based; conditions: for fungal growth (% plate coverage): day 14
# Protocol: as §1, with “Botrytis was grown in petri dishes on PD agar. Potato” for “Potato”, “triplicate. The experiment was repeated three times (three batches). The observation period for each batch was 2 weeks.” for “triplicate.”
# as §2, §3, §4
substance,measurement,setting,value
"lysozyme: type c egg white lysozyme, enzyme of approximately 129 amino acids; commercially available from Canadian Inovatech, Inc.",fungal growth (% plate coverage),[1]; 50 ppm,50%
same,fungal growth (% plate coverage),[1]; 100 ppm,35%
same,"fungal growth compared with 100, 50 or 0 ppm (Tukey test)","[1]; 250, 500 or 1000 ppm, p<0.05",significantly lower
same,fungal growth (% plate coverage),[1]; 250 ppm,7%
same,fungal growth (% plate coverage),[1]; 500 ppm,4%
same,differences in disease severity among the three lysozyme concentrations,"[2]; 5,000, 10,000, 20,000 ppm",no significant differences
same,disease severity compared to the untreated control,"[2]; 5,000, 10,000 or 20,000 ppm, day 7, 10 or 21 after inoculation, p≦0.01",significant reductions
same,control against M. nivale,[3],good control
same,fungal growth (% plate coverage),[4]; 50 ppm,89.4%
same,fungal growth (% plate coverage),[4]; 100 ppm,90.0%
same,fungal growth (% plate coverage),[4]; 250 ppm,61.5%
same,fungal growth (% plate coverage),[4]; 500 ppm,36.2%
same,fungal growth (% plate coverage),[4]; 1000 ppm,33.9%
same,concentration required to significantly reduce the growth,[4]; p<0.05,100 ppm
same,coverage of the petri dishes,[5]; 50 ppm,65.8%
same,coverage of the petri dishes,[5]; 100 ppm,59.5%
same,coverage of the petri dishes,[5]; 250 ppm,36.1%
same,coverage of the petri dishes,[5]; 500 ppm,19.9%
same,coverage of the petri dishes,[5]; 1000 ppm,14.4%
same,lowest concentration that significantly reduced the fungal growth,[5]; p<0.05,50 ppm
same,fungal growth (% plate coverage),[6]; 50 ppm,33.7%
same,fungal growth (% plate coverage),[6]; 100 ppm,37.8%
same,fungal growth (% plate coverage),[6]; 250 ppm,23.5%
same,fungal growth (% plate coverage),[6]; 500 ppm,18.0%
same,lowest concentration that significantly reduced the fungal growth,[6]; p<0.05,50 ppm
same,Minimum lysozyme usage recommended,[7],250-500 ppm
same,average fungal growth (% plate coverage),[7]; 50 ppm,77.7%
same,average fungal growth (% plate coverage),[7]; 100 ppm,79.5%
same,"fungal growth (% plate coverage) compared to 0, 50 and 100 ppm (Tukey)","[7]; 250, 500 and 1000 ppm",significantly reduced
same,average fungal growth (% plate coverage),[7]; 250 ppm,38.6%
same,average fungal growth (% plate coverage),[7]; 500 ppm,25.7%
same,average fungal growth (% plate coverage),[7]; 1000 ppm,20.8%
same,fungal growth (% plate coverage),[8]; 50 ppm,96.9%
same,fungal growth (% plate coverage),[8]; 100 ppm,90.6%
same,fungal growth (% plate coverage),[8]; 250 ppm,65.4%
same,fungal growth (% plate coverage),[8]; 500 ppm,43.0%
same,fungal growth (% plate coverage),[8]; 1000 ppm,34.7%
same,minimum concentration required to effectively inhibit this strain,[8]; p<0.05,100 ppm
same,fungal growth (% plate coverage),[9]; 50 ppm,87.2%
same,fungal growth (% plate coverage),[9]; 100 ppm,86.2%
same,fungal growth (% plate coverage),[9]; 250 ppm,34.0%
same,fungal growth (% plate coverage),[9]; 500 ppm,16.4%
same,fungal growth (% plate coverage),[9]; 1000 ppm,11.3%
same,concentration at which the fungal growth was significantly reduced,[9]; p<0.05,100 ppm
